Assay results: patent EP4603105A1, “PHARMACEUTICAL COMPOSITION CONTAINING CYCLIC COMPOUND HAVING SELECTIVE KRAS INHIBITORY EFFECT AGAINST HRAS AND NRAS” (CHUGAI SEIYAKU KABUSHIKI KAISHA, priority 2022, dated 2024)
Read-outs that look alike come from different tables or passages of the source.

Key:
[1] = target: GDP-bound KRAS wild-type protein (Homo sapiens, UniProt P01116); assay: Binding to KRAS by surface plasmon resonance (SPR), dissociation constant KD
How it was run: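 Running buffer contained 10 µM GDP and 10 mM MgCl2 to keep RAS in the GDP state, with 4% DMSO at pH 7.4. Compounds were flowed at 100 µL/min in 75 s steps of rising concentration over captured biotin-Avi RAS at 30°C. Sensorgrams were fitted 1:1 for KD.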

[2] = target: GDP-bound NRAS wild-type protein (Homo sapiens, UniProt P01111); assay: Binding to NRAS by surface plasmon resonance (SPR), KD and KD ratio to KRAS
How it was run: (§1)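 GDP-bound biotin-Avi RAS captured at ~100–300 RU, 30°C, pH 7.4 HBS containing 10 µM GDP, 10 mM MgCl2, 1 mM DTT, 0.01% Tween 20 and 4% DMSO. KD by 1:1 fitting.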

[3] = target: HRAS wild-type protein (Homo sapiens, UniProt P01112); assay: Binding to HRAS by surface plasmon resonance (SPR), KD and KD ratio to KRAS
How it was run: as §1

[4] = tested on: human lung cancer strain NCI-H441; assay: NCI-H441 cell proliferation inhibitory activity (CellTiter-Glo, 4 days); type: cell-based; details: read-out: NCl-H441 IC50
How it was run: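 Readout: […] after the ATP-based reagent. Compound: serial dilutions in dimethyl sulfoxide.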

[5] = ratio of KD for GDP-bound NRAS wild-type protein to KD for KRAS
[6] = ratio of KD for HRAS wild-type protein to KD for KRAS
[7] = Single Cycle Kinetics, 1:1 binding model
[8] = ratio of KD with respect to GDP-bound NRAS wild-type protein to KD with respect to KRAS
[9] = ratio of KD with respect to HRAS wild-type protein to KD with respect to KRAS
[10] = 50% proliferation inhibitory concentration, four days

GDP-bound KRAS wild-type protein, sequence (P01116 1-188 isoform P01116-2): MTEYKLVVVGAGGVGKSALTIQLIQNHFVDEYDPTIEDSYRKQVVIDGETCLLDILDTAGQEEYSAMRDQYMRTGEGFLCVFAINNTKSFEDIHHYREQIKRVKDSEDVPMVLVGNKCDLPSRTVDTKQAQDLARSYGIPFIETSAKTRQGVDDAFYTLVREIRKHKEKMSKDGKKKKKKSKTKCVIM
GDP-bound NRAS wild-type protein, sequence (P01111 whole entry): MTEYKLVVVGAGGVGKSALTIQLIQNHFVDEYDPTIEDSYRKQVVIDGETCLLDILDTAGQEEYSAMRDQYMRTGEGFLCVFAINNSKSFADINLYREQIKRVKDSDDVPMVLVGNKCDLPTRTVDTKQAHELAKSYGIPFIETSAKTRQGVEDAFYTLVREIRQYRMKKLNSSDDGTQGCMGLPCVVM
HRAS wild-type protein, sequence (P01112 whole entry): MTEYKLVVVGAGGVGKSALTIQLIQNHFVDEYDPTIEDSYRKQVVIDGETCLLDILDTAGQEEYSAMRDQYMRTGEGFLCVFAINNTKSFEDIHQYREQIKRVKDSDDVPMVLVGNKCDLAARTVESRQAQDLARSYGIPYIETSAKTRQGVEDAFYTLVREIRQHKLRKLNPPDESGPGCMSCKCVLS

Compound | Kd ([1]; Single Cycle Kinetics) [nM] | NRAS /KRAS [2, 5] | HRAS /KRAS [3, 6] | IC50 ([4]; NCI-H441 cells, 4 days) [nM] | Kd [1, 7] [nM] | NRAS /KRAS [2, 8] | HRAS /KRAS [3, 9] | IC50 [4, 10] [nM] | Kd ([1]; 1:1 binding model) [nM]
CCC[C@H]1C(=O)N[C@@H]([C@@H](C)CC)C(=O)N(C)CC(=O)N(C)[C@H]2C/C=C\CCN(C2=O)[C@@H](Cc2ccc(C(F)(F)F)cc2)C(=O)N(C)CC(=O)N[C@@H](CCc2cc(F)c(C(F)(F)F)c(F)c2)C(=O)N2CC3(CC3)C[C@H]2C(=O)N(C)C2(CCC2)C(=O)N(C)[C@@H]([C@@H](C)CC)C(=O)N(C)[C@H](C(=O)N(C)C)CC(=O)N1C [PP3358] | 0.11 | A (a compound having 10 or more and less than 20 is denoted as A) | A (a compound having 10 or more and less than 20 is denoted as A) | 3.1 |  |  |  |  | 
CCO[C@@H]1C[C@H]2C(=O)NC3(CCC3)C(=O)N(C)[C@@H](C3CCCC3)C(=O)N(C)[C@H](C(=O)N(C)C)CC(=O)N(C)[C@@H](CC(C)C)C(=O)N[C@@H]([C@@H](C)CC)C(=O)N(C)CC(=O)N(C)[C@H]3C/C=C\CCN(C3=O)[C@@H](Cc3ccc(C(F)(F)F)cc3)C(=O)N(C)CC(=O)N[C@@H](CCc3ccc(Cl)c(Cl)c3)C(=O)N2C1 [PP1251] |  |  |  |  | 0.18 | AA (a compound having 20 or more is denoted as AA) | A (a compound having 10 or more and less than 20 is denoted as A) | 10.2 | 
CCO[C@@H]1C[C@H]2C(=O)NC3(CCC3)C(=O)N(C)[C@@H](C3CCCC3)C(=O)N(C)[C@H](C(=O)N3CCCC3)CC(=O)N(C)[C@@H](CC3CCC3)C(=O)N[C@@H]([C@@H](C)CC)C(=O)N(C)CC(=O)N(C)[C@H]3C/C=C\CCN(C3=O)[C@@H](Cc3ccc(C)cc3)C(=O)N(C)CC(=O)N[C@@H](CCc3cc(F)c(C(F)(F)F)c(F)c3)C(=O)N2C1 [PP1425] |  |  |  |  | 0.24 | A (a compound having 10 or more and less than 20 is denoted as A) | B (a compound having 3 or more and less than 10 is denoted as B) | 20.2 | 
CC[C@H](C)[C@@H]1NC(=O)[C@H](CC)N(C)C(=O)C[C@@H](C(=O)N(C)C)N(C)C(=O)[C@H](C2CCCC2)N(C)C(=O)C2(CCC2)NC(=O)[C@@H]2C[C@@H](C(F)(F)F)CN2C(=O)[C@H](CCc2cc(F)c(C(F)(F)F)c(F)c2)NC(=O)CN(C)C(=O)[C@H](Cc2ccc(C(F)(F)F)cc2)N2CC/C=C\C[C@@H](C2=O)N(C)C(=O)CN(C)C1=O [PP1133] |  |  |  |  | 0.05 | A (a compound having 10 or more and less than 20 is denoted as A) | A (a compound having 10 or more and less than 20 is denoted as A) | 16.5 | 
CCO[C@@H]1C[C@H]2C(=O)NC3(CCCC3)C(=O)N(C)[C@@H](C(CC)CC)C(=O)N(C)[C@H](C(=O)N3CCCC3)CC(=O)N(C)[C@@H](C)C(=O)N[C@@H]([C@@H](C)CC)C(=O)N(C)CC(=O)N(C)[C@H]3C/C=C\CCN(C3=O)[C@@H](CC3CCCCC3)C(=O)N(C)CC(=O)N[C@@H](CCc3cc(F)c(C(F)(F)F)c(F)c3)C(=O)N2C1 [PP1435] |  |  |  |  | 1.1 | A (a compound having 10 or more and less than 20 is denoted as A) | A (a compound having 10 or more and less than 20 is denoted as A) | 178 | 
CC[C@H](C)[C@@H]1NC(=O)[C@H](CC)N(C)C(=O)C[C@@H](C(=O)N(C)C)N(C)C(=O)[C@H](C2CCCC2)N(C)C(=O)C2(CCC2)NC(=O)[C@@H]2C[C@@H](C(F)(F)F)CN2C(=O)[C@H](CCc2cc(F)c(C(F)(F)F)c(F)c2)NC(=O)CN(C)C(=O)[C@H](CC2CCCCC2)N2CC/C=C\C[C@@H](C2=O)N(C)C(=O)CN(C)C1=O [PP1465] |  |  |  |  | 0.36 | A (a compound having 10 or more and less than 20 is denoted as A) | A (a compound having 10 or more and less than 20 is denoted as A) | 34.1 | 
C=C(C)C[C@H]1C(=O)N(C)[C@H](C(=O)N(C)C)CC(=O)N(C)[C@@H](CC(C)C)C(=O)N[C@@H]([C@@H](C)CC)C(=O)N2CCC[C@H]2C(=O)N(C)[C@H]2C/C=C\CCN(C2=O)[C@@H](Cc2ccc(C)cc2)C(=O)N(C)CC(=O)N[C@@H](CCc2cc(F)c(C(F)(F)F)c(F)c2)C(=O)N2C[C@H](OCC)C[C@H]2C(=O)N(C)C2(CCC2)C(=O)N1C [PP3351] | 4.2 | A (a compound having 10 or more and less than 20 is denoted as A) | A (a compound having 10 or more and less than 20 is denoted as A) | 34.7 |  |  |  |  | 
CCO[C@@H]1C[C@H]2C(=O)NC3(CCC3)C(=O)N(C)[C@@H](C3CCCC3)C(=O)N(C)[C@H](C(=O)N3CCOCC3)CC(=O)N(C)[C@@H](Cc3ccc(C#N)cc3)C(=O)N[C@@H]([C@@H](C)CC)C(=O)N(C)CC(=O)N(C)[C@H]3CCCCCN(C3=O)[C@@H](Cc3ccc(F)cc3)C(=O)N(C)CC(=O)N[C@@H](CCc3cc(F)c(C(F)(F)F)c(F)c3)C(=O)N2C1 [PP1187] |  |  |  |  | 0.12 | B (a compound having 3 or more and less than 10 is denoted as B) | B (a compound having 3 or more and less than 10 is denoted as B) | 52.3 | 
CCO[C@@H]1C[C@H]2C(=O)NC3(CC(C)(C)C3)C(=O)N(C)[C@@H](C3CCCC3)C(=O)N(C)[C@H](C(=O)N(C)CC)CC(=O)N(C)[C@@H]([C@H](C)OC)C(=O)N[C@@H]([C@@H](C)CC)C(=O)N(C)CC(=O)N(C)[C@H]3C/C=C\CCN(C3=O)[C@@H](Cc3ccc(C)cc3)C(=O)N(C)CC(=O)N[C@@H](CCc3cc(F)c(C(F)(F)F)c(F)c3)C(=O)N2C1 [PP3226] | 0.3 | A (a compound having 10 or more and less than 20 is denoted as A) | B (a compound having 3 or more and less than 10 is denoted as B) | 12.4 |  |  |  |  | 
CCC(CC)[C@H]1C(=O)N(C)[C@H](C(=O)N(C)C)CC(=O)N(C)[C@@H](CC2CC2)C(=O)N[C@@H]([C@@H](C)CC)C(=O)N(C)CC(=O)N(C)[C@H]2C/C=C\CCN(C2=O)[C@@H](CC2CCC(F)(F)CC2)C(=O)N(C)CC(=O)N[C@@H](CCc2cc(F)c(C(F)(F)F)c(F)c2)C(=O)N2C[C@@H](C)C[C@H]2C(=O)NC2(CC(C)(C)C2)C(=O)N1C [PP2500] |  | A (a compound having 10 or more and less than 20 is denoted as A) | A (a compound having 10 or more and less than 20 is denoted as A) | 125 |  |  |  |  | 1.7
CCO[C@@H]1C[C@H]2C(=O)NC3(CC(C)(C)C3)C(=O)N(C)[C@@H](C(CC)CC)C(=O)N(C)[C@H](C(=O)N(C)C)CC(=O)N(C)[C@@H](CC3CC3)C(=O)N[C@@H]([C@@H](C)CC)C(=O)N(C)CC(=O)N(C)[C@H]3C/C=C\CCN(C3=O)[C@@H](CC3CCC(F)(F)CC3)C(=O)N(C)CC(=O)N[C@@H](CCc3cc(F)c(C(F)(F)F)c(F)c3)C(=O)N2C1 [PP2485] |  | A (a compound having 10 or more and less than 20 is denoted as A) | A (a compound having 10 or more and less than 20 is denoted as A) | 55.5 |  |  |  |  | 0.78
CCCOC[C@H]1C(=O)N[C@@H]([C@H](C)CC)C(=O)N(CCC)CC(=O)N(C)[C@H]2C/C=C\CCN(C2=O)[C@@H](Cc2ccc(C(F)F)cc2)C(=O)N(C)CC(=O)N[C@@H](CCc2cc(F)c(C(F)(F)F)c(F)c2)C(=O)N2C[C@H](OC(C)C)C[C@H]2C(=O)N(C)C2(CCC2)C(=O)N(C)[C@@H](C(CC)CC)C(=O)N(C)[C@H](C(=O)N(C)C)CC(=O)N1C [PP3492] | 4.2 | A (a compound having 10 or more and less than 20 is denoted as A) | A (a compound having 10 or more and less than 20 is denoted as A) | 89.4 |  |  |  |  | 
CCCOC[C@H]1C(=O)N[C@@H]([C@@H](C)CC)C(=O)N2CCC[C@H]2C(=O)N(C)[C@H]2C/C=C\CCN(C2=O)[C@@H](Cc2ccc(C)cc2)C(=O)N(C)CC(=O)N[C@@H](CCc2cc(F)c(C(F)(F)F)c(F)c2)C(=O)N2C[C@H](C)C[C@H]2C(=O)NC2(CC(C)(C)C2)C(=O)N(C)[C@@H](C2CCCC2)C(=O)N(C)[C@H](C(=O)N(C)CC)CC(=O)N1C [PP2430] |  | AA (a compound having 20 or more is denoted as AA) | A (a compound having 10 or more and less than 20 is denoted as A) | 33.2 |  |  |  |  | 1.4
CCC[C@H]1C(=O)N[C@@H](CC(C)C)C(=O)N(C2CC2)CC(=O)N(C)[C@H]2C/C=C\CCN(C2=O)[C@@H](Cc2ccc(C)cc2)C(=O)N(C)CC(=O)N[C@@H](CCc2ccc(C(F)(F)F)c(OC)c2)C(=O)N2C[C@H](OCC)C[C@H]2C(=O)NC2(CCC2)C(=O)N(C)[C@@H](C2CCCC2)C(=O)N(C)[C@H](C(=O)N(C)C)CC(=O)N1C [PP2534] |  | A (a compound having 10 or more and less than 20 is denoted as A) | B (a compound having 3 or more and less than 10 is denoted as B) | 195 |  |  |  |  | 4.1
